The target in assay [1] is T1, KalbSec14 (Rattus norvegicus, UniProt P97924, N62Y/T46S).
T1 construct: His6 (TEV-cleavable) (N, cleaved yes); made in house; host or cells: E. coli BL21(DE3)
Nature of the assay: Isothermal titration calorimetry (preliminary). The note with it: data not shown; authors' response in peer review file; read-out: estimated KD from preliminary ITC data. It counts as binding.

In assay [2] the target is T2, Kal^Sec14 (Rattus norvegicus, UniProt P97924, N62Y/T46S).
T2 construct: 19.4 kDa); His6 (TEV-cleavable) (N, cleaved yes); made in house; host or cells: E. coli BL21(DE3)
The assay is described as follows: NMR chemical shift perturbation (CSP) titration, 1H-15N HSQC. Format: binding. As to the method:
(§1) ^1H-^15N HSQC spectra of the uniformly ^15N-labeled Kal^bSec14 and Kal^Sec14 were recorded at 25 °C on an Agilent VNMRS 800 MHz (^1H) spectrometer equipped with a cryogenic probe. ^1H-^15N HSQC spectra of the uniformly ^15N-labeled Kal^bSec14 mutants were recorded using the TopSpin software (https://www.bruker.com/en/products-and-solutions/mr/nmr-software/topspin.html) at 25 °C on a Bruker Avance NEO 600 MHz spectrometer equipped with a cryogenic probe. All detergents and lipids used in this study were purchased from Cube Biotech Inc. (Wayne, Pennsylvania) and Avanti Polar Lipids, Inc. (Alabaster, Alabama), respectively; details are listed in Supplementary Table 2. After collecting an initial protein-only spectrum with a starting protein concentration of 0.4 mM, each detergent or lipid was dissolved in the same NMR buffer and gradually added to the protein until no further CSP was observed. Each series usually comprised 8-12 titration points, with ligand concentrations ranging from 0 to 8 mM and final protein:ligand ratios from 1:7 to 1:25 (the protein concentration in each mixture during titration was confirmed by UV-vis absorbance at 280 nm). The HSQC spectrum was recorded for each titration point using the same instrument setup as that of the apo protein. All spectra were processed with NMRPipe[59], and peak heights and locations were analyzed in CcpNmr Analysis[60].
(§2) For each titration series, observed CSPs for a single amino acid residue were calculated using the combined shift change (Δδ) of the backbone amide nitrogen and proton based on the equation △δ(ppm)=[△δH2+(α⋅△δN)^2] , where ΔδH and ΔδN are the ^1H and ^15N chemical shift differences between the free and bound states, respectively, and α denotes the chemical shift scaling factor for ^15N[63].
(§3) In each titration series, the peaks for all residues were ranked based on the CSP observed upon titration at the highest ligand concentration. […] The well-resolved and non-overlapped CSPs, usually including most of the 2σ CSPs and some of the 1σ CSPs, were then plotted as a function of the ligand concentration and the dissociation constant (KD) was extracted by nonlinear least-square fitting of the following equation: △δobs=△δmax(KD+[L]t+[P]t)−(KD+[L]t+[P]t)^2−4[L]t[P]t/2[P]t , where [P]t and [L]t are the total protein and ligand concentrations, respectively, and △δmax is the chemical shift difference at saturation. The bound fraction plotted as the y-axis in the Figures was defined as △δobs/△δmax based on the average of the normalized CSPs from all the selected peaks. Titration data for each residue and each peak used for KD calculations are provided in the Source Data file.

Assay [3] has as its target T1, KalbSec14. The description is as above. It counts as binding. The procedure: as §1, §2, §3
For a further assay, the target named is α-TTP. More on the design: method as in earlier work. The note with it: quoted by reviewer as specific binding; ref 1 Panagabko, C. et al. Biochemistry 42, 6467–74 (2003); cited from earlier work.
The next assay has as its system Kal^cSec14. The conditions noted are these: previous studies; cited from earlier work.
Assay [4] has as its target T1, KalbSec14. The assay is described as follows: Liposome flotation binding assay (Accudenz gradient, Western blot). The procedure:
Unilamellar liposomes formed by mixing synthetic dioleoyl phospholipids and cholesterol in proportions mimicking the membranes of the trans-Golgi network (Golgi-mixture) were incubated with Kal^bSec14. An Accudenz gradient was used to separate liposome-bound proteins, which were recovered from the top of the gradient (fraction 1), from unbound proteins, which remained at the bottom (fraction 4). Protein levels in each fraction were analyzed by Western blotting with an antibody to the Sec14 domain of Kalirin.
(§4) The synthetic and natural lipids used in flotation assays were purchased from Avanti Polar Lipids, Inc. (Supplementary Table 2). All powdered lipids were dissolved in chloroform per the manufacturer’s instructions. Liposomes were prepared as previously described. […] Individual test lipids were dried together with the control lipid mix under a nitrogen stream and lyophilized overnight. Each dried lipid film was reconstituted to a final concentration of 1 mM in HN buffer containing 20 mM HEPES (pH 7.4) and 150 mM NaCl. Each final lipid mixtures consisted of 52% DOPC, 20% DOPE, 5% DOPS, 15% cholesterol and 8% tested lipid; inclusion of a trace amount of fluorescent lipid (Liss Rhod PE) allowed for localization of liposomes following gradient fractionation (see below). Each lipid mixture underwent five freeze-thaw cycles separated by vigorous vortexing each time it was thawed. Using a mini-extruder, unilamellar liposomes were prepared by passing each lipid mixture 21 times through a polycarbonate membrane of 100-nm pore size. Hydrated lipid mixtures were stored at −20 °C for up to 1 month; liposomes were freshly prepared for each experiment.
(§5) Flotation assays were conducted following the protocol previously described. Accudenz (Accurate Chemical and Scientific Corp., Westbury, NY) solutions (80 and 20% weight/vol) were prepared in HN buffer. To remove any particulate material, the protein to be tested was first centrifuged at 436,000 g at 4 °C for 15 min in a TL-100 ultracentrifuge using a Beckman TLA100.2 fixed angle rotor. Freshly prepared unilamellar liposomes (50 μl) were combined with 0.2 μg of the centrifuged protein and incubated at room temperature for 30 min. The entire liposome/protein mixture was then combined with 50 μl of 80% Accudenz at the bottom of an ultracentrifuge tube and carefully mixed to completion by pipetting. The resulting mixture was overlayered with […] of 20% Accudenz and then with 50 μl of HN buffer. Samples were centrifuged at 259,000 g at 4 °C for 30 min in the same ultracentrifuge using a Beckman TLS55 swinging bucket rotor. Gradients were then divided into four 100-μl fractions, which were carefully collected from the bottom of the tube using gel loading micropipette tips. Each fraction was analyzed for liposome and protein content using spectrophotometry (546-nm excitation/571-nm emission) and Western blot, respectively. Only those assays with at least 90% of the Liss Rhod PE marker recovered in the top fraction (fraction 1) were used for Western bloting analysis.
(§6) For Western bloting analysis, equal aliquots of each gradient fraction were denatured in 1× Laemmli sample buffer, fractionated on 15% acrylamide gels, and transferred to PVDF membranes. The protein content was detected using a custom-made rabbit antibody to the Sec14 domain of Kalirin (CT302[69], 1:3000) and an HRP-tagged goat anti-rabbit IgG (H + L) secondary antibody (catalog # 31460, 1:6000; ThermoFisher Scientific). SuperSignal West chemiluminescent substrate (Thermo Scientific) and a Syngene PXi digital imaging system (Synoptics Group) were used to visualize blots, with exposures adjusted to be in the linear range.

The target in assay [5] is T2, Kal^Sec14. Described as above. The conditions noted are these: Suppl. Fig. 9b,c. The procedure: as §4, §5
as §6, with “range. After background subtraction, bands were quantified using the GeneSys software provided with the imaging system, and data were represented as a proportion of total protein recovered. Uncropped blots, quantification of each data point and exact P-values are provided in the Source Data file. […]” for “range.”
a. Representative Western blots from flotation assays with Kal Sec14 alone (Control), and Kal Sec14 with the control lipid mix (Lipo) or with the lipid mix containing the indicated additional lipid. After binding and separation of liposome bound Kal Sec14 from unbound Kal Sec14 on Accudenz gradients, the protein content of four gradient fractions was dete rmined by immunoblot; liposomes were recovered from the top fraction (fraction 1). Source data are […]

[6] abbreviates: construct without Ex1B front peptide, NMR titration, mean ± S.D. over residues, 25 °C, read-out: KD.
The mark [7] stands for this setting: NMR titration, two-state binding model, mean ± S.D. of CSP data for individual residues, 25 °C, read-out: KD.
Where [8] appears, read: source data of the global fitting, S.D. in the next column, read-out: KD, Ave of residue peaks.
The mark [9] stands for this setting: mean of independent experiments, normalized to total protein recovered, test lipid 8% of liposome lipid.
Setting [10] is: average, biological replication ≥ 3.
[11] abbreviates: individual experiments (Exp. 1-4).

As usually defined, the Kd is the equilibrium constant for the complex coming apart.

Several values for one entry are separate records, joined by “and”; a condition that tells them apart may be missing. Equal entries are not always repeated. Where two headings read alike, the source gives them in different places.

In the case of `CCCCCCCCCCCCOP(=O)([O-])OCC[N+](C)(C)C` [FC12, dodecylphosphocholine], the Kd on KalbSec14 [1] is ~500 µM; at Kal^Sec14 [2] (setting [6]), 514 ± 66 µM; at Kal^Sec14 [2] (read-out: KD of FC12 binding to KalSec14, Ave, average over residue peaks 1-20) it was 514 µM; on Kal^Sec14 [2] (read-out: KD of FC12 binding to KalSec14, fit of individual residue peak, residue peaks 1-20, ligand concentrations given in mM), 498 µM and 470 µM and 575 µM and 487 µM (2×) and 514 µM and 590 µM and 540 µM and 542 µM and 537 µM and 496 µM (2×) and 477 µM and 505 µM and 512 µM and 511 µM and 332 µM and 481 µM and 555 µM and 685 µM; at KalbSec14 [3] (setting [7]) it was 245 ± 36 µM; at KalbSec14 [3] (setting [8]) it was 245 µM. Moreover, the Kd on KalbSec14 [3] (source data of the global fitting, peaks numbered, residues not named, read-out: KD fitted for individual residue peaks) is 198 µM and 290 µM and 295 µM and 203 µM and 213 µM and 217 µM and 232 µM and 242 µM and 245 µM and 277 µM and 286 µM.
With `Cc1c(C)c2c(c(C)c1O)CC[C@@](C)(CCC[C@H](C)CCC[C@H](C)CCCC(C)C)O2` [α-tocopherol], at α-TTP, the Kd was 0.025 µM.
On to `CCCCCCCCCCCCCCOP(=O)([O-])OCC[N+](C)(C)C` [FC14, tetradecylphosphocholine], for which the Kd at KalbSec14 [1] was ~30 µM; at Kal^Sec14 [2] (setting [6]) it was 35.6 ± 7.2 µM; on Kal^Sec14 [2] (read-out: KD of FC14 binding to KalSec14, Ave, average over residue peaks 1-24), 35.6 µM; on Kal^Sec14 [2] (read-out: KD of FC14 binding to KalSec14, fit of individual residue peak, residue peaks 1-24, ligand concentrations given in mM), 47.7 µM and 39.3 µM (2×) and 55.2 µM and 45.5 µM and 35.6 µM (3×) and 25.3 µM and 26.6 µM and 37.4 µM (4×) and 32.3 µM (3×) and 33.9 µM (3×) and 27.9 µM (2×) and 41.2 µM and 24.1 µM; on KalbSec14 [3] (setting [7]), 17.1 ± 4.9 µM; at KalbSec14 [3] (setting [8]), 17.1 µM.
As to “L-α-phosphatidylinositol-4-phosphate [PI4P]”, the “interaction of Kal^cSec14 with liposomes containing the lipid” value in the assay on Kal^cSec14 was “specifically interacts”. On KalbSec14 [4] (Golgi-mixture liposomes with 8% test lipid, result in words), the “binding of Kal^bSec14 to liposomes containing the lipid” value was “does not interact”. Further, on KalbSec14 [4] (setting [9]), the “Fraction 1 protein content (top fraction, liposome-bound), densitometry, Ave.” value is 0.0251; the “Fraction 2 protein content, densitometry, Ave.” value was 0.0079; the “Fraction 3 protein content, densitometry, Ave.” value is recorded as 0.11; the “Fraction 4 protein content (bottom fraction, unbound), densitometry, Ave.” value worked out at 0.86. Further, the “Fraction 4 protein content (bottom fraction, unbound), densitometry” value on KalbSec14 [4] (single experiments, normalized to total protein recovered, test lipid 8% of liposome lipid) was 0.87 and 0.90 and 0.84 and 0.91 and 0.78. At Kal^Sec14 [5] (setting [10]), the “Densitometry values for the Western blots, Fraction 1, Ave.” value is listed as 0.06; the “Densitometry values for the Western blots, Fraction 2, Ave.” value stood at 0.02; the “Densitometry values for the Western blots, Fraction 3, Ave.” value is 0.13; the “Densitometry values for the Western blots, Fraction 4, Ave.” value is recorded as 0.79. On Kal^Sec14 [5] (setting [11]), the “Densitometry values for the Western blots, Fraction 1” value is 0.08 and 0.06 and 0.0331; the “Densitometry values for the Western blots, Fraction 2” value was 0.00889 and 0.05 and 0.0021; the “Densitometry values for the Western blots, Fraction 3” value is 0.04 and 0.22 and 0.13; the “Densitometry values for the Western blots, Fraction 4” value was 0.87 and 0.67 and 0.84.

Values taken from publication PMC9823006 (Nature Communications, 2023).
